Results on 28 molecules are retold here after publication PMC12062478, “Screening herbal and natural product libraries to aid discovery of novel allosteric modulators of human P2X7” (Purinergic Signalling, 2024).

Like-named read-outs stand apart in the source and are kept apart here.

In experiment [1] the target is T1, P2X7 (Homo sapiens, UniProt Q99572).
T1 construct: expressed in transfected cells
T1 sequence (Q99572 1-595): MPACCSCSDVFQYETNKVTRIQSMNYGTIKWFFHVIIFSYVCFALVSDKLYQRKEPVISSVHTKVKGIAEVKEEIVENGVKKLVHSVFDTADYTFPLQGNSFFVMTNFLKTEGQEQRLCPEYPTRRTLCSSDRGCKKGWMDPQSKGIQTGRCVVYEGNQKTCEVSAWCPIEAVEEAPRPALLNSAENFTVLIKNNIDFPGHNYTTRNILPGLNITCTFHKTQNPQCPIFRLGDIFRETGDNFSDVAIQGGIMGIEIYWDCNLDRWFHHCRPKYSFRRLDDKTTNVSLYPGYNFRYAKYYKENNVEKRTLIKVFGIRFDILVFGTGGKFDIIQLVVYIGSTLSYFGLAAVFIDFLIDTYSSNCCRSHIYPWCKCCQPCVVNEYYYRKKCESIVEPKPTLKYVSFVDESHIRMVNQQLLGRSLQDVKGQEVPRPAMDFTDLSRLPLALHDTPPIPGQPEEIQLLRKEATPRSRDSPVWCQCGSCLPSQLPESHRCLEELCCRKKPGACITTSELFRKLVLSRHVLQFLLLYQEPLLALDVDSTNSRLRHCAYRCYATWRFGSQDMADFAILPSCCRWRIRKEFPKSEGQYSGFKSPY
Description: fura-2 intracellular calcium assay in HEK-hP2X7 cells. It counts as cell-based. To be noted: fura-2-loaded HEK-hP2X7, 10 min pre-treatment, 1 mM ATP. As for the experimental part:
Supplementary Figure 3: Validation of P2X7 antagonist activity using a fura-2 assay. HEK-hP2X7 cells were loaded with fura-2AM (2µM) to measure intracellular calcium responses to ATP. Cells were loaded for 45 minutes at 37 °C and then pre-treated with various concentrations of test compounds for 10 minutes. For full methodological details please see [1]. Responses to 1mM ATP were assessed over 300 seconds using a Flexstation 3 plate reader. Ratiometric fura-2 data was converted to area under curve.

Experiment [2] deals with T1, P2X7. Description: ATP-induced YO-PRO-1 dye uptake in HEK-hP2X7 cells. To be noted: for IC50: HEK-hP2X7, 10 min pre-treatment, read-out: IC50 value (95% CI); for Effect on P2X7 responses: purified glycosides/aglycone from potentiating extracts; for Effect on YO-PRO-1 uptake at high concentrations: > 30 µM; for P2X7 response (% of control): compound 10 µM injected 60 s before ATP. It counts as cell-based. As for the experimental part: HEK-hP2X7 or HEK-hP2X4 cells were plated at 2.5 × 10^4 cells per well (100 µL volume) the day before experiments into poly-D-lysine (Merck Millipore) coated 96-well plates (NUNC, Fisher Scientific #167-008). The membrane impermeant dye YO-PRO-1 iodide (Life Technologies, Fisher Scientific) was used at a final concentration of 2 µM in low divalent buffer (145 mM NaCl, 5 mM KCl, 0.2 mM CaCl2, 13 mM glucose, 10 mM HEPES, pH 7.3, osm 300–310). Media were removed from the plate, and 90 µL of YO-PRO-1 buffer was added per well. Plates were warmed to 37 °C for 5 min before recording. Data was acquired on a Flexstation 3 plate reader (Molecular Devices) using excitation wavelength 490 nm, emission wavelength 520 nm, and six reads per well (PMT medium). […] […] Pipette height was set to 80 µL and the rate of injection was 4.
YO-PRO-1 dye uptake assay data is plotted as a percentage of control where control responses are measured in the absence of plant extract. Cell viability data is plotted as a percentage of control or background-corrected fluorescence data. Concentration–response graphs were plotted using GraphPad Prism v6 with a non-linear regression fit (variable slope). IC50 values were generated from collated datasets from a minimum of three independent experiments. Statistical differences were determined by one-way ANOVA statistical tests performed using GraphPad Prism v6 with Dunnett’s multiple comparison post hoc test. Significance was taken as P ≤ 0.05.
We acquired a natural product library (Set IV) containing 419 compounds from NCI DTP and tested these on P2X7 responses using a YO-PRO-1 dye uptake in HEK293 cells stably expressing human P2X7 (HEK-hP2X7). […] This allowed us to assess for any immediate effect of the injected compound, and secondly, it allowed for any potential negative modulators to be pre-incubated with P2X7.

The target of experiment [3] is T2, hP2X7 (Homo sapiens, UniProt Q99572).
T2 sequence (Q99572 1-595): T1 sequence (Q99572 1-595)
Kind of experiment: Whole-cell patch-clamp electrophysiology in HEK-hP2X7 cells. It counts as cell-based. To be noted: 10 µM with ATP 100 µM, 5-s application, −60 mV. As for the experimental part:
Stably expressing HEK-hP2X7 cells were plated onto 13-mm glass coverslips 24 h prior to use. Membrane currents were recorded in the whole-cell patch-clamp configuration using an EPC10 amplifier (HEKA Elektronik) and borosilicate glass electrodes (TF-150 World Precision Instruments), resistance […] when filled with standard internal solution (145 mM NaCl, 10 mM HEPES, 10 mM EGTA, pH 7.3). Cells were voltage-clamped at − 60 mV, and dialysis of intracellular contents was performed for 1 min prior to experimental procedures. Cells were continuously perfused by gravity feed with standard divalent buffer solution (145 mM NaCl, 5 mM KCl, 2 mM CaCl2, 1 mM MgCl2, 13 mM glucose, 10 mM HEPES, pH 7.3) prior to seal formation, and low divalent buffer solution was used for agonist and PAM application. Agonists were applied using a computer-controlled fast-flow system (RSC-160; Bio-Logic Scientific Instruments) with the perfusion capillaries placed in close proximity to the cell under investigation.
Fig. 6 Dioscin enhances P2X7-dependent pore formation and potentiates channel opening. A Dioscorea nipponica (organic) plant extract (30 µg/mL) increased ATP-dependent YO-PRO-1 iodide uptake. AZ10606120 (10 µM, grey bars) was added to block hP2X7. B YO-PRO-1 uptake following a co-stimulation of HEK-hP2X7 cells with 200 µM ATP ± the named compounds in the presence or absence of AZ10606120. YO-PRO-1 uptake was quantified between 50 and 300 s (n = 5). C Whole-cell patch-clamp recordings were performed at room temperature. Cells were voltage-clamped at − 60 mV, and responses to a 5-s stimulation of ATP (100 µM) followed by a 5-s stimulation of ATP (100 µM) + dioscin/diosgenin (10 µM) were measured from HEK-hP2X7 cells. Representative traces are shown. D Summary of normalised current amplitudes represented as a fold change compared to ATP responses in the absence of dioscin/diosgenin (n = 10–18 cells). E Concentration response to ATP in the presence of dioscin (10 µM, green) or vehicle (DMSO, black) using YO-PRO-1 uptake assay in HEK-hP2X7 and F HEK-293 cells. […]

In experiment [4] the target is T2, hP2X7. The following applies: cited from earlier work.
Where [5] appears, read: screen for potential negative allosteric modulators.

For orientation: IC50 means the concentration that inhibits the measured activity by half. As for `COc1ccc2cc3[n+](cc2c1OC)CCc1cc2c(cc1-3)OCO2` [Berberine], the “P2X7 antagonist activity on ATP-induced calcium responses” value on P2X7 [1] was “demonstrated P2X7 antagonist activity”. The IC50 on P2X7 [2] (ATP 1 mM) came out at 5.17 µM.
`C[C@@H]1CC[C@@]2(OC1)O[C@H]1C[C@H]3[C@@H]4CC=C5C[C@@H](O)CC[C@]5(C)[C@H]4CC[C@]3(C)[C@H]1[C@@H]2C` [Diosgenin, diosgenin]: the “Potentiation of hP2X7 ion channel opening” value at hP2X7 [3] is “not capable of potentiating P2X7 channel opening”. Further, the “Effect on P2X7 responses” value at P2X7 [2] is “could not potentiate responses”.
For the molecule `O=C(O[C@@H]1Cc2c(O)cc(O)cc2O[C@@H]1c1cc(O)c(O)c(O)c1)c1cc(O)c(O)c(O)c1` [EGCG, epigallocatechin gallate], on P2X7 [1], the “P2X7 antagonist activity on ATP-induced calcium responses” value is recorded as “demonstrated P2X7 antagonist activity”.
Consider `Cc1cc(O)c2c(c1)C(=O)c1cc(O)cc(O)c1C2=O` [Emodin], for which the 50% inhibitory concentration (IC50) on hP2X7 [4] (electrophysiological recordings, read-out: IC50) was 3 µM; on P2X7 [2] (ATP 1 mM) it was 55.2 µM.
`CCCCCCCCCCCCCCCC(=O)O` [Palmitic acid]: the “Effect on YO-PRO-1 uptake at high concentrations” value at P2X7 [2] (HEK-hP2X7) is listed as “reduction of YO-PRO-1 uptake in hP2X7 cells at high concentrations”.
Take `CC(=O)CCCCn1c(=O)c2c(ncn2C)n(C)c1=O` [Pentoxifylline, reference compound]: the “P2X7 response (% of control)” value on P2X7 [2] (screen for PAM activity) is recorded as 140.48 % of control.
Same read-out and setting: the same measure for `CC(C)=CCC[C@@H](C)C1=C(O)C(=O)C(C)=CC1=O` [Perezone]: 148.44 % of control; for `COc1cc([C@@H]2c3cc4c(cc3[C@H](O)[C@H]3COC(=O)[C@@H]23)OCO4)cc(OC)c1OC` [Picropodophyllin]: 145.86 % of control.
For the molecule `CC1(C)C[C@]23[C@@H]4COC(=O)[C@H]2CC[C@H]1[C@@H]3CC4=O` [Quadrone], the “P2X7 response (% of control)” value on P2X7 [2] (setting [5]) is reported as 40.82 % of control.
Still for that read-out and setting: in the case of `CO[C@H]1[C@@H](O)[C@@H](C)O[C@@H](OC2CCC3(C)C(CCC4C3C(O)CC3(C)C(C5=CC(=O)OC5)CCC43O)C2)[C@@H]1O` (stereo partly drawn) [Sarnovid] it was 38.95 % of control.
On to `COc1cc2ccc(=O)oc2cc1O` [Scopoletin], for which, on P2X7 [2] (HEK-hP2X7), the “Effect on YO-PRO-1 uptake at high concentrations” value is reported as “reduction of YO-PRO-1 uptake in hP2X7 cells at high concentrations”. The IC50 at P2X7 [2] (ATP 1 mM) was 39.9 µM.
For the molecule `C=C(NC(=O)C(=C)NC(=O)c1csc(C2=N[C@@H]3c4csc(n4)[C@H]4NC(=O)c5csc(n5)[C@H]([C@](C)(O)[C@@H](C)O)NC(=O)[C@H]5CSC(=N5)/C(=C/C)NC(=O)[C@H]([C@@H](C)O)NC(=O)c5csc(n5)[C@]3(CC2)NC(=O)[C@H](C)NC(=O)C(=C)NC(=O)C(=C)NC(=O)[C@H](C(C)C)N[C@@H]2C=Cc3c([C@H](C)O)cc(nc3[C@H]2O)C(=O)O[C@@H]4C)n1)C(N)=O` [Siomycin A], the “P2X7 response (% of control)” value at P2X7 [2] (screen for PAM activity) is given as 157.10 % of control.
Same read-out and setting: in the case of `COC1=C(N)C(=O)c2nc(-c3nc(C(=O)O)c(C)c(-c4ccc(OC)c(OC)c4O)c3N)ccc2C1=O` [Streptonigrin] it was 139.02 % of control.
As for `COc1ccc2c(c1OC)CN1CCc3cc4c(cc3C1C2)OCO4` (stereo not drawn) [Tetrahydroberberine], the “Effect on ATP-mediated YO-PRO-1 uptake” value on P2X7 [2] (10 µM, 10 min pre-incubation, ATP 1 mM) is listed as “able to reduce ATP-mediated YO-PRO-1 uptake”. Also, the “P2X7 response (% of control)” value on P2X7 [2] (setting [5]) is on record as 26.9 % of control.
With `CO[C@@H]1/C=C/O[C@@]2(C)Oc3c(C)c(O)c4c(c3C2=O)C(=N[C@@H]2CC[C@@H](O)O[C@H]2C)C=C(NC(=O)/C(C)=C\C(=O)[C@@H]2C[C@@H]2[C@H](O)[C@@H](C)[C@@H](O)[C@@H](C)[C@H](OC(C)=O)[C@@H]1C)C4=O` [Tolypromycin Y], the “P2X7 response (% of control)” value on P2X7 [2] (setting [5]) was 47.05 % of control.
In the case of `COc1cc(C=O)ccc1O` [Vanilline], at P2X7 [2] (screen for PAM activity), the “P2X7 response (% of control)” value was 158.27 % of control.
Same read-out and setting: in the case of `COC(=O)/C(=C1/OC(=O)C(c2ccccc2)=C1O)c1ccccc1` [Vulpinic acid] it was 150.3 % of control; in that of `CC1=C(C)C(=O)O[C@@H]([C@](C)(O)[C@H]2CC[C@H]3[C@@H]4[C@@H]5O[C@@H]5[C@@]5(O)CC=CC(=O)[C@]5(C)[C@H]4CC[C@]23C)C1` [Withanolide A], 149.93 % of control.
On to `O=C(O)c1cc(O)c(O)c(O)c1` [gallic acid], for which the 50% inhibitory concentration (IC50) at hP2X7 [4] (inhibition of hP2X7 currents by electrophysiology, read-out: IC50 value) is 4.26 µM.
On to `COc1ccc2c(c1)CC=C(CO)c1cc3c(cc1-2)OCO3` [tenuifolin], for which, at P2X7 [2], the “Effect on P2X7 responses” value is reported as “no effect on P2X7 responses”.
With `COc1cc([C@@H]2c3cc4c(c(O)c3C[C@H]3COC(=O)[C@@H]32)OCO4)cc(OC)c1OC` [Β-peltatin], the “P2X7 response (% of control)” value at P2X7 [2] (setting [5]) is recorded as 31.98 % of control.
Regarding Erythromycin cyclopentylproprionate, the “P2X7 response (% of control)” value at P2X7 [2] (screen for PAM activity) is on record as 126.67 % of control.
On the same count and under the same terms, the same measure for Hexopyranuronic acid: 147.11 % of control; for Medicarpin: 140.60 % of control.
Same read-out and setting: in the case of Monoacetyl verrucan A it was 170.65 % of control; in that of Ossamycin, 145.55 % of control; in that of Predorine, 740.31 % of control.
Take Scopafungin: the “Sensitivity of the potentiated ATP response to P2X7 antagonist AZ10606120” value on P2X7 [2] (AZ10606120 10 µM) was “could be prevented by pre-treatment with the P2X7 selective antagonist, AZ10606120”. The “YO-PRO-1 uptake in the absence of ATP” value at P2X7 [2] (HEK-hP2X7) is “increase in YO-PRO-1 uptake in the absence of ATP”. For the same molecule, on P2X7 [2] (compound 10 µM), the “Effect on ATP concentration–response curve” value is “increase the maximum response to ATP and increase the sensitivity to ATP”. The “P2X7 response (% of control)” value on P2X7 [2] (screen for PAM activity) is given as 159.83 % of control.
